Experimental data from ChEMBL document CHEMBL1201862, “PubChem BioAssay data set” (2004).
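Following 48 hours of exposure in 96-well plates, responses at five concentrations were used to interpolate endpoints linearly. GI50: concentration for 50% inhibition of growth.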 The source made the active and inactive calls. Rule as the data show it: active = GI50 up to about 1.1 µM and inactive = higher.

Tests used:
Test in all cases: growth of human tumour cells (NCI), 48 h
[1] = tested on: SR
[2] = tested on: MCF7
[3] = tested on: HOP-92
[4] = tested on: HCC 2998
[5] = tested on: SF-295
[6] = tested on: RPMI-8226
[7] = tested on: HL-60
[8] = tested on: SN12C
[9] = tested on: T47D
[10] = tested on: OVCAR-4
[11] = tested on: MDA-MB-231
[12] = tested on: Malme-3M
[13] = tested on: NCI-H23
[14] = tested on: DU-145
[15] = tested on: SNB-75
[16] = tested on: EKVX
[17] = tested on: PC-3
[18] = tested on: M14
[19] = tested on: UO-31
[20] = tested on: MOLT-4

Row | Compound | GI50 [1] | GI50 [2] | GI50 [3] | GI50 [4] | GI50 [5] | GI50 [6] | GI50 [7] | GI50 [8] | GI50 [9] | GI50 [10] | GI50 [11] | GI50 [12] | GI50 [13] | GI50 [14] | GI50 [15] | GI50 [16] | GI50 [17] | GI50 [18] | GI50 [19] | GI50 [20]
1 | O=P(O)(NCCCl)NCCCl [PALIFOSFAMIDE] | 4.95 µM (inactive) | > 100 µM (inactive) | > 100 µM (inactive) | > 100 µM (inactive) | 54.1 µM (inactive) | > 89.5 µM (inactive) | > 51.3 µM (inactive) | 63 µM (inactive) | > 100 µM (inactive) | > 100 µM (inactive) | > 100 µM (inactive) | > 100 µM (inactive) | 64.6 µM (inactive) | 92.9 µM (inactive) | > 65.6 µM (inactive) | > 10 µM (inactive) | > 100 µM (inactive) | > 100 µM (inactive) | > 100 µM (inactive) | 60.3 µM (inactive)
2 | CC(C)(C)c1ccc(C(C)(C)C)c(N2C(=O)[C@@H]3[C@@H]4C=C[C@@H](C4)[C@]3(C)C2=O)c1 | 5.2 µM (inactive) | 22.4 µM (inactive) | 0.869 µM (active) | 15.5 µM (inactive) | 27.7 µM (inactive) | 14.7 µM (inactive) | 16.4 µM (inactive) | 20.1 µM (inactive) | 18.4 µM (inactive) | 13.6 µM (inactive) | 28.4 µM (inactive) | 21.9 µM (inactive) | 45.1 µM (inactive) | 20.2 µM (inactive) |  | 47.3 µM (inactive) | 20.2 µM (inactive) | 19.5 µM (inactive) | 29.3 µM (inactive) | 14.9 µM (inactive)
3 | C=C[C@]1(C)CC(O)C2C(=C)C(=O)OC2[C@H]1C(=C)C=O (stereo partly drawn) | 1.91 µM (inactive) | 1.09 µM (active) | 2.61 µM (inactive) | 14.1 µM (inactive) | 10.6 µM (inactive) | 0.859 µM (active) | 0.893 µM (active) | 2.37 µM (inactive) | 3.15 µM (inactive) | 7.93 µM (inactive) | 3.1 µM (inactive) | 1.86 µM (inactive) | 2.68 µM (inactive) | 12.1 µM (inactive) | 18.6 µM (inactive) | 15 µM (inactive) | 2.87 µM (inactive) | 2.08 µM (inactive) | 6.37 µM (inactive) | 2 µM (inactive)
4 | CCOP(C)(=O)/C(Cc1ccc(OC)c(OC)c1)=N\O (stereo not drawn) | > 100 µM (inactive) | > 100 µM (inactive) | > 100 µM (inactive) | > 100 µM (inactive) | > 100 µM (inactive) | > 100 µM (inactive) | > 100 µM (inactive) | > 100 µM (inactive) | > 100 µM (inactive) | > 100 µM (inactive) | > 100 µM (inactive) | > 100 µM (inactive) | > 100 µM (inactive) | > 100 µM (inactive) | > 100 µM (inactive) | > 100 µM (inactive) | > 100 µM (inactive) | > 100 µM (inactive) | > 100 µM (inactive) | > 100 µM (inactive)
5 | CCCCCCCCCCCCCCCCCC(=O)OCC(COC1OC(CS(=O)(=O)O)C(O)C(O)C1O)OC(=O)CCCCCCCCCCCCCCCCC (stereo not drawn) | 0.222 µM (active) | > 100 µM (inactive) | 45.2 µM (inactive) | > 100 µM (inactive) | > 100 µM (inactive) | > 100 µM (inactive) | > 100 µM (inactive) | > 100 µM (inactive) | > 100 µM (inactive) | > 100 µM (inactive) | > 100 µM (inactive) | > 100 µM (inactive) | > 100 µM (inactive) | > 100 µM (inactive) | 10.4 µM (inactive) | > 100 µM (inactive) | > 100 µM (inactive) | > 100 µM (inactive) |  | > 100 µM (inactive)
6 | CC1(C)CCC(C)(C)C1C(=O)NC(O)C(=O)O (stereo not drawn) | > 100 µM (inactive) | > 100 µM (inactive) | 2.43 µM (inactive) | > 100 µM (inactive) |  | > 100 µM (inactive) | > 100 µM (inactive) | > 100 µM (inactive) | > 100 µM (inactive) |  | > 100 µM (inactive) |  | > 10 µM (inactive) | > 100 µM (inactive) | > 100 µM (inactive) | > 100 µM (inactive) | > 100 µM (inactive) | > 100 µM (inactive) | > 100 µM (inactive) | > 100 µM (inactive)
7 | CSC1=Nc2ccccc2-c2nc3ccccc3cc2C1 | 29.9 µM (inactive) | > 100 µM (inactive) | > 100 µM (inactive) | > 100 µM (inactive) | > 100 µM (inactive) |  | 76 µM (inactive) | > 100 µM (inactive) | 25.9 µM (inactive) | > 100 µM (inactive) | > 100 µM (inactive) | > 100 µM (inactive) | > 100 µM (inactive) | > 100 µM (inactive) |  | > 100 µM (inactive) | > 100 µM (inactive) | > 100 µM (inactive) | > 100 µM (inactive) | > 100 µM (inactive)
